For test [1], the system named is human lung adenocarcinoma cells (Calu-3). In words: Microarray analysis of apoptosis-regulating genes in Calu-3 cells. In kind it is cell-based. Set-up: key: ‘+’ and ‘−’ indicates genes over- and under-expressed, respectively; ‘+’ and ‘−’ indicates genes over- and under-expressed, respectively. Here is the method:
Cell culture. Human bronchial epithelial adenocarcinoma cell line (Calu-3) was obtained from ATCC (Manassas, Va., USA) and cultured in 50 cm^2 plastic culture flasks in modified eagle's medium (MEM) supplemented with 10% fetal bovine serum, glutamine (4 mM; Sigma-Aldrich, Canada) and penicillin (100 U mL-1)-streptomycin (100 μg mL-1) solution (Sigma-Aldrich, Canada). Cells were cultured at an initial density of 10^6 cells/mL, and fresh media was added on day 3. Cells were grown in an incubator at 37° C., 5% CO2, and 100% humidity.
Chemical treatments. Calu-3 cells were treated with different concentrations (0-100 μM) of cyclolinopeptide A (“CLA”), cyclolinopeptide C (“CLC”) or cyclolinopeptide E (“CLE”). Camptothecin (Sigma-Aldrich, Canada; 4 μM) and dimethylsulfoxide (DMSO) were used as positive and negative controls, respectively. Camptothecin is useful as a positive control in studies testing the effect of certain compounds on apoptosis in cancer cell lines. Camptothecin is a cytotoxic quinoline alkaloid that inhibits the DNA enzyme topoisomerase I (topo I) and has shown remarkable anti-cancer activity. Two analogs of camptothecin have been approved and are used in cancer chemotherapy.
Current microarray design platforms facilitate the design of gene expression arrays for analysis of a compound of interest and its impact on a large number of known genes. Cyclolinopeptide A, cyclolinopeptide C and cyclolinopeptide E were therefore used in microarray analysis to determine their effect on under- and over-expression of genes involved in the regulation of apoptosis in human lung adenocarcinoma cells (Table 2).

The test system of the next test is heat shock gene HSP70A. Description: Expression of heat shock gene HSP70A in nematode cultures exposed to cyclolinopeptide-A. In kind it is in vivo, Caenorhabditis elegans. Particulars: two hours exposure, C. elegans. An excerpt:
FIG. 17 is a chart showing the effects of cyclolinopeptide A on the expression of the HSP70A gene in Caenorhabditis elegans. Bars on the columns represent standard deviations. Letters above the bars designate significant differences determined by data analysis using one-way analysis of variance with pair-wise multiple comparisons were done by the Tukey test; and
The following example relates to the use of selected purified individual cyclolinopeptides recovered and processed as disclosed herein for modulating the expression of stress genes. Nematode cultures (Caenorhabditus elegans) were exposed for two hours to one of DMSO (negative control), 0.1 μM cyclolinopeptide-A, 1.0 μM cyclolinopeptide-A, 10.0 μM cyclolinopeptide-A, and 100.0 μM cyclolinopeptide-A, and then cultured to assess the effects of cyclolinopeptide-A on the expression of the heat shock gene HSP70A by C. elegans. The control treatment was unamended culture medium.

The values that follow come from patent US8383172B2, “Recovery of hydrophobic peptides from oils” (University of Saskatchewan, priority 2007, dated 2013).

Take cyclolinopeptide C [CLP-C]: in test [1], the “BCL-2 gene up- or down-regulated” value is on record as “−”, the “CASP10 gene up- or down-regulated” value is listed as “+”, the “CDEB gene up- or down-regulated” value is recorded as “+” and the “CIDEA gene up- or down-regulated” value is recorded as “+”. In test [1], the “Fas gene up- or down-regulated” value was “+”, the “HRK gene up- or down-regulated” value was “+”, the “TNF gene up- or down-regulated” value is recorded as “+” and the “TP53BP2 gene up- or down-regulated” value was “+”. For the same substance, the “TP53 gene up- or down-regulated” value in test [1] was “+”.

With cyclolinopeptide E [CLP-E], in test [1], the “BCL-2 gene up- or down-regulated” value was “−”, the “CDEB gene up- or down-regulated” value is recorded as “+”, the “CIDEA gene up- or down-regulated” value is “+” and the “Fas gene up- or down-regulated” value was “+”. In addition, in test [1], the “HRK gene up- or down-regulated” value was “+”, the “TNF gene up- or down-regulated” value is on record as “+” and the “TP53BP2 gene up- or down-regulated” value is reported as “+”.

Consider cyclolinopeptide A [CLP-A], for which the “increase in the production of the Hsp70A protein” value in the test with heat shock gene HSP70A (0.1 μM in culture media) is 30%. For the same substance, the “increase in the production of this heat shock protein (Hsp70A)” value in the test with heat shock gene HSP70A (1.0 μM in culture media) was determined as 3.5 fold. For the same substance, the “increase in the production of the Hsp70A protein” value with heat shock gene HSP70A (10.0 μM in culture media) was determined as 30%. Moreover, in test [1], the “BAK gene up- or down-regulated” value is “+”, the “BCL-2 gene up- or down-regulated” value is reported as “+”, the “CDEB gene up- or down-regulated” value was “+” and the “FASLG gene up- or down-regulated” value was “+”. For the same substance, in test [1], the “Fas gene up- or down-regulated” value was “+”, the “TNF gene up- or down-regulated” value is listed as “+”, the “TP53BP2 gene up- or down-regulated” value is recorded as “+” and the “TP53 gene up- or down-regulated” value is recorded as “+”.
